What was measured:
[1] = test system: SK-OV-3; test: Cytotoxicity against human SKOV3 cells assessed as cell growth at 10 uM after 48 hrs by sulforhodamine B assay relative to control; assay type: functional; details: SK-OV-3, 48 h, read-out: Activity
[2] = test system: RPMI-8226; test: Cytotoxicity against human RPMI8226 cells assessed as cell growth at 1 uM after 48 hrs by sulforhodamine B assay relative to control; assay type: functional; details: RPMI-8226, 48 h, read-out: Activity
[3] = test system: HCT-116; test: Cytotoxicity against human HCT116 cells assessed as cell growth at 0.01 uM after 48 hrs by sulforhodamine B assay relative to control; assay type: functional; details: HCT-116, 48 h, read-out: Activity
[4] = test system: RPMI-8226; test: Cytotoxicity against human RPMI8226 cells assessed as growth inhibition after 48 hrs by sulforhodamine B assay; assay type: functional; details: RPMI-8226, 48 h
[5] = test system: NCI-H23; test: Cytotoxicity against human NCI-H23 cells assessed as cell growth at 0.01 uM after 48 hrs by sulforhodamine B assay relative to control; assay type: functional; details: NCI-H23, 48 h, read-out: Activity
[6] = test system: DU-145; test: Cytotoxicity against human DU145 cells assessed as cell growth at 10 uM after 48 hrs by sulforhodamine B assay relative to control; assay type: functional; details: DU-145, 48 h, read-out: Activity
[7] = test system: SW-620; test: Cytotoxicity against human SW620 cells assessed as cell growth at 1 uM after 48 hrs by sulforhodamine B assay relative to control; assay type: functional; details: SW-620, 48 h, read-out: Activity
[8] = test system: KM12; test: Cytotoxicity against human KM12 cells assessed as cell growth at 10 uM after 48 hrs by sulforhodamine B assay relative to control; assay type: functional; details: KM12, 48 h, read-out: Activity
[9] = test system: RPMI-8226; test: Cytotoxicity against human RPMI8226 cells assessed as cell growth at 0.1 uM after 48 hrs by sulforhodamine B assay relative to control; assay type: functional; details: RPMI-8226, 48 h, read-out: Activity
[10] = test system: SW-620; test: Cytotoxicity against human SW620 cells assessed as cell growth at 100 uM after 48 hrs by sulforhodamine B assay relative to control; assay type: functional; details: SW-620, 48 h, read-out: Activity
[11] = test system: K562; test: Cytotoxicity against human K562 cells assessed as cell growth at 0.1 uM after 48 hrs by sulforhodamine B assay relative to control; assay type: functional; details: K562, 48 h, read-out: Activity
[12] = test system: SF-539; test: Cytotoxicity against human SF539 cells assessed as cell growth at 1 uM after 48 hrs by sulforhodamine B assay relative to control; assay type: functional; details: SF-539, 48 h, read-out: Activity
[13] = test system: NCI-H322M; test: Cytotoxicity against human NCI-H322M cells assessed as cell growth at 100 uM after 48 hrs by sulforhodamine B assay relative to control; assay type: functional; details: read-out: Activity
[14] = test system: MDA-MB-435; test: Cytotoxicity against human MDA-MB-435 cells assessed as cell growth at 0.01 uM after 48 hrs by sulforhodamine B assay relative to control; assay type: functional; details: MDA-MB-435, 48 h, read-out: Activity
[15] = test system: U-251; test: Cytotoxicity against human U251 cells assessed as cell growth at 100 uM after 48 hrs by sulforhodamine B assay relative to control; assay type: functional; details: U-251, 48 h, read-out: Activity
[16] = test system: SW-620; test: Cytotoxicity against human SW620 cells assessed as growth inhibition after 48 hrs by sulforhodamine B assay; assay type: functional; details: SW-620, 48 h
[17] = test system: SN12C; test: Cytotoxicity against human SN12C cells assessed as cell growth at 1 uM after 48 hrs by sulforhodamine B assay relative to control; assay type: functional; details: read-out: Activity
[18] = test system: BT-549; test: Cytotoxicity against human BT549 cells assessed as cell growth at 10 uM after 48 hrs by sulforhodamine B assay relative to control; assay type: functional; details: BT-549, 48 h, read-out: Activity
[19] = test system: UACC-62; test: Cytotoxicity against human UACC62 cells assessed as cell growth at 0.01 uM after 48 hrs by sulforhodamine B assay relative to control; assay type: functional; details: UACC-62, 48 h, read-out: Activity
[20] = test system: 786-0; test: Cytotoxicity against human 786-0 cells assessed as cell growth at 10 uM after 48 hrs by sulforhodamine B assay relative to control; assay type: functional; details: 786-0, 48 h, read-out: Activity
[21] = test system: SF-268; test: Cytotoxicity against human SF268 cells assessed as cell growth at 1 uM after 48 hrs by sulforhodamine B assay relative to control; assay type: functional; details: SF-268, 48 h, read-out: Activity
[22] = test system: NCI-H322M; test: Cytotoxicity against human NCI-H322M cells assessed as cell growth at 0.1 uM after 48 hrs by sulforhodamine B assay relative to control; assay type: functional; details: read-out: Activity
[23] = test system: DU-145; test: Cytotoxicity against human DU145 cells assessed as cell growth at 100 uM after 48 hrs by sulforhodamine B assay relative to control; assay type: functional; details: DU-145, 48 h, read-out: Activity
[24] = test system: OVCAR-5; test: Cytotoxicity against human OVCAR5 cells assessed as cell growth at 1 uM after 48 hrs by sulforhodamine B assay relative to control; assay type: functional; details: OVCAR-5, 48 h, read-out: Activity
[25] = test system: OVCAR-4; test: Cytotoxicity against human OVCAR4 cells assessed as cell growth at 0.01 uM after 48 hrs by sulforhodamine B assay relative to control; assay type: functional; details: OVCAR-4, 48 h, read-out: Activity
[26] = test system: HCT-15; test: Cytotoxicity against human HCT15 cells assessed as cell growth at 0.1 uM after 48 hrs by sulforhodamine B assay relative to control; assay type: functional; details: HCT-15, 48 h, read-out: Activity
[27] = test system: MCF7; test: Cytotoxicity against human MCF7 cells assessed as growth inhibition after 48 hrs by MTT assay; assay type: functional, cell-based; details: MCF7, 48 h
[28] = test system: KM12; test: Cytotoxicity against human KM12 cells assessed as cell growth at 0.1 uM after 48 hrs by sulforhodamine B assay relative to control; assay type: functional; details: KM12, 48 h, read-out: Activity
[29] = test system: MDA-MB-435; test: Cytotoxicity against human MDA-MB-435 cells assessed as cell growth at 1 uM after 48 hrs by sulforhodamine B assay relative to control; assay type: functional; details: MDA-MB-435, 48 h, read-out: Activity
[30] = test system: UACC-62; test: Cytotoxicity against human UACC62 cells assessed as cell growth at 100 uM after 48 hrs by sulforhodamine B assay relative to control; assay type: functional; details: UACC-62, 48 h, read-out: Activity
[31] = test system: ACHN; test: Cytotoxicity against human ACHN cells assessed as growth inhibition after 48 hrs by sulforhodamine B assay; assay type: functional
[32] = test system: K562; test: Cytotoxicity against human K562 cells assessed as growth inhibition after 48 hrs by sulforhodamine B assay; assay type: functional; details: K562, 48 h
[33] = test system: HL-60(TB); test: Cytotoxicity against human HL-60(TB) cells assessed as cell growth at 0.1 uM after 48 hrs by sulforhodamine B assay relative to control; assay type: functional; details: HL-60, 48 h, read-out: Activity
[34] = test system: SK-MEL-28; test: Cytotoxicity against human SK-MEL-28 cells assessed as cell growth at 100 uM after 48 hrs by sulforhodamine B assay relative to control; assay type: functional; details: SK-MEL-28, 48 h, read-out: Activity
[35] = test system: PC-3; test: Cytotoxicity against human PC3 cells assessed as cell growth at 0.1 uM after 48 hrs by sulforhodamine B assay relative to control; assay type: functional; details: PC-3, 48 h, read-out: Activity
[36] = test system: OVCAR-8; test: Cytotoxicity against human OVCAR8 cells assessed as cell growth at 100 uM after 48 hrs by sulforhodamine B assay relative to control; assay type: functional; details: OVCAR-8, 48 h, read-out: Activity

Q: Which growth at 10 µM [1] does the source give for COc1ccc(-c2cc(/C=C/C(=O)c3cc(OC)c(OC)c(OC)c3)[nH]n2)cc1OC here?
A: The growth at 10 µM was 37%.

Q: And the growth at 1 µM [2]?
A: Its growth at 1 µM is 11%.

Q: And the growth at 0.01 µM [3]?
A: Its growth at 0.01 µM is 100%.

Q: What about the GI50 [4] of the same compound?
A: The GI50 was 0.29 µM.

Q: And the LC50 [4]?
A: Its LC50 is over 100 µM.

Q: And the TGI [4]?
A: Its TGI is 1.66 µM.

Q: And the growth at 0.01 µM [5]?
A: Its growth at 0.01 µM is 94%.

Q: What about the growth at 10 µM [6] of the same compound?
A: The growth at 10 µM was -55%.

Q: What about the growth at 1 µM [7] of the same compound?
A: The growth at 1 µM was 70%.

Q: And the growth at 10 µM [8]?
A: Its growth at 10 µM is -81%.

Q: And the growth at 0.1 µM [9]?
A: The growth at 0.1 µM was 85%.

Q: What about the growth at 100 µM [10] of the same compound?
A: Its growth at 100 µM is -43%.

Q: And the growth at 0.1 µM [11]?
A: Its growth at 0.1 µM is 94%.

Q: What about the growth at 1 µM [12] of the same compound?
A: Its growth at 1 µM is 17%.

Q: And the growth at 100 µM [13]?
A: Its growth at 100 µM is -91%.

Q: What about the growth at 0.01 µM [14] of the same compound?
A: Its growth at 0.01 µM is 98%.

Q: And the growth at 100 µM [15]?
A: The growth at 100 µM was -94%.

Q: And the GI50 [16]?
A: The GI50 was 1.5 µM.

Q: And the LC50 (lethal concentration, 50% net cell kill) [16]?
A: Its LC50 (lethal concentration, 50% net cell kill) is over 100 µM.

Q: And the TGI [16]?
A: The TGI was 4.16 µM.

Q: And the growth at 1 µM [17]?
A: The growth at 1 µM was 87%.

Q: What about the growth at 10 µM [18] of the same compound?
A: The growth at 10 µM was -80%.

Q: What about the growth at 0.01 µM [19] of the same compound?
A: Its growth at 0.01 µM is 96%.

Q: And the growth at 10 µM [20]?
A: The growth at 10 µM was -94%.

Q: And the growth at 1 µM [21]?
A: Its growth at 1 µM is 81%.

Q: What about the growth at 0.1 µM [22] of the same compound?
A: The growth at 0.1 µM was 88%.

Q: And the growth at 100 µM [23]?
A: Its growth at 100 µM is -88%.

Q: What about the growth at 1 µM [24] of the same compound?
A: Its growth at 1 µM is 81%.

Q: And the growth at 0.01 µM [25]?
A: Its growth at 0.01 µM is 94%.

Q: And the growth at 0.1 µM [26]?
A: The growth at 0.1 µM was 90%.

Q: What about the IC50 [27] of the same compound?
A: Its IC50 is 1.1 µM.

Q: What about the growth at 0.1 µM [28] of the same compound?
A: The growth at 0.1 µM was 92%.

Q: And the growth at 1 µM [29]?
A: Its growth at 1 µM is 85%.

Q: And the growth at 100 µM [30]?
A: Its growth at 100 µM is -80%.

Q: What about the GI50 [31] of the same compound?
A: Its GI50 is 1.45 µM.

Q: And the LC50 [31]?
A: Its LC50 is 5.5 µM.

Q: And the TGI [31]?
A: Its TGI is 2.82 µM.

Q: And the GI50 [32]?
A: Its GI50 is 0.73 µM.

Q: What about the LC50 (concentration killing 50% of cells) [32] of the same compound?
A: Its LC50 (concentration killing 50% of cells) is over 100 µM.

Q: What about the TGI [32] of the same compound?
A: Its TGI is 9.71 µM.

Q: What about the growth at 0.1 µM [33] of the same compound?
A: Its growth at 0.1 µM is 93%.

Q: And the growth at 100 µM [34]?
A: Its growth at 100 µM is -82%.

Q: And the growth at 0.1 µM [35]?
A: The growth at 0.1 µM was 93%.

Q: What about the growth at 100 µM [36] of the same compound?
A: Its growth at 100 µM is -84%.

Source: ChEMBL document CHEMBL4138123, “Design, synthesis and biological evaluation of novel pyrazolochalcones as potential modulators of PI3K/Akt/mTOR pathway and inducers of apoptosis in breast cancer cells” (Eur J Med Chem, 2017)
